We go through 76 molecules from PubChem BioAssay AID1549 (Sanford-Burnham Center for Chemical Genomics, 2009).

Calls of active or inactive are those of the source. How the calls were made is not given here. Some results are limits rather than exact numbers.

The target of the experiment is Influenza A virus M2 proton channel (A/TW/4845/1999 H1N1). Briefly: NMR binding screen, influenza A virus M2 proton channel, Kd (AID 1549). Conditions: M2 protein.
As to `CC1(C)C=Cc2c(cc3occ(-c4ccc5c(c4)OCO5)c(=O)c3c2O)O1`, the Kd is > 4 mM (inactive).
With `COc1ccc(-c2c(O)c3c(OC)c4c(cc3oc2=O)OC(C)(C)CC4)cc1` the figure was > 4 mM (inactive).
With `O=c1ccn(Cc2ccccc2)c(=O)[nH]1` the figure was > 4 mM (inactive); with `O=C1C[C@@H](c2ccc(O)cc2)Oc2cc(O)cc(O)c21`, > 4 mM (inactive).
Under `O=C(CNC(=O)c1ccc(F)cc1)NC1=NCCS1` stands > 4 mM (inactive); under `O=C(Nc1ccon1)c1ccc(Br)o1`, > 4 mM (inactive).
`COc1ccc(/C=C2/C(=O)N=C(N)N2C)cc1OC`: the Kd was > 4 mM (inactive).
Under `O=C(O)c1cn(-c2ccccc2)nc1-c1cccnc1` stands > 4 mM (inactive); under `c1ccc(SCc2nc(-c3cccnc3)no2)cc1`, > 4 mM (inactive).
Under `O=C(O)Cc1n[nH]c(=O)c2ccccc12` stands > 4 mM (inactive); under `COc1ccc(Cc2nnc3c4cnn(C)c4ncn23)cc1`, > 4 mM (inactive); under `O=C(c1cnsn1)N1CCN(c2ccccn2)CC1`, > 4 mM (inactive).
Under `CC(=O)c1ccc2c(c1)OCCO2` stands > 4 mM (inactive).
For `O=C1c2ccccc2-c2ncnc3cccc1c23`, the Kd is > 4 mM (inactive).
Under `Cc1cc(=O)c2ccccc2n1CC(N)=O` stands > 4 mM (inactive); under `COc1c2ccoc2c(OC)c2oc(=O)ccc12`, > 4 mM (inactive).
Under `O=C(O)C1C(=O)NCC1c1ccccc1` (stereo unspecified) stands > 4 mM (inactive); under `N#C/C(=C\c1ccc[nH]1)S(=O)(=O)c1ccccc1`, > 4 mM (inactive); under `COc1ccc2c(c1)[nH]c1c(C)nccc12`, > 4 mM (inactive).
With `Cc1nc2sccn2c1C(=O)O`, the Kd was > 4 mM (inactive).
With `CCOC(=O)c1ccc(F)c(F)c1` the figure was > 4 mM (inactive).
With `CCC(CO)NC(=O)c1snnc1C` (stereo unspecified) the figure was > 4 mM (inactive).
With `Cc1nc2nc(Cc3ccccc3)[nH]n2c(=O)c1Cl` the figure was > 4 mM (inactive); with `Cn1nnc2c(Cl)ncnc21`, > 4 mM (inactive).
Take `CC(C)CCCC(C)[C@H]1CCC2C3CC=C4CC(=O)CC[C@]4(C)C3CC[C@@]21C` (stereo partly specified): the Kd was > 4 mM (inactive).
Under `NC(=S)N1CCC(c2ccccc2)=N1` stands > 4 mM (inactive).
With `COC(=O)C[C@H]1C(C)(C)C(=O)[C@@H]2CC3C4=CC(=O)O[C@@H](c5ccoc5)[C@]4(C)CCC3C1(C)C2=O` (stereo partly specified) the figure was > 4 mM (inactive); with `Nc1nnc(SCc2ccc(F)cc2Cl)s1`, > 4 mM (inactive); with `COc1cc(C)c(S(=O)(=O)N2CCN(C)CC2)cc1C`, > 4 mM (inactive).
With `Cn1c(NCc2ccco2)nc2ccccc21` the figure was > 4 mM (inactive); with `Cc1n[nH]c(=O)c2ncn(C)c12`, > 4 mM (inactive); with `O=c1c2ccccc2nc2n1CCCCN2`, > 4 mM (inactive).
With `CSc1nnc2c(n1)OC=Nc1ccccc1-2`, the Kd was > 4 mM (inactive).
Under `S=C(CN1CCCC1=S)N1CCOCC1` stands > 4 mM (inactive); under `CN(C(N)=O)C1(C)CCS(=O)(=O)C1` (stereo unspecified), > 4 mM (inactive); under `COC(=O)c1ccc(/C=C2/NC(=S)NC2=O)cc1`, > 4 mM (inactive).
Take `O=C(O)c1snnc1-c1ccccc1`: the Kd was > 4 mM (inactive).
Under `Cc1ccc(NC(=O)C2CCCNC2=O)nc1` (stereo unspecified) stands > 4 mM (inactive); under `CC(=O)n1c(N)nc2ccccc21`, > 4 mM (inactive); under `c1ccc(Cc2nn3c(-c4ccncc4)nnc3s2)cc1`, > 4 mM (inactive).
With `c1ccc2[nH]c(CCn3cncn3)nc2c1` the figure was > 4 mM (inactive); with `Cc1cc(C)n(-c2cccc3cccnc23)n1`, > 4 mM (inactive); with `COc1cc(C)nc(N(CCO)CCO)n1`, > 4 mM (inactive).
Under `Cc1cc(C)c(-c2cc(C(F)(F)F)no2)c(=O)[nH]1` stands > 4 mM (inactive).
On to `NC(=O)CSc1nnc2ccc3ccccc3n12`, for which the Kd was > 4 mM (inactive).
With `CC1(C)O[C@H]2[C@H](O)C[C@](O)(C(N)=O)C[C@H]2O1` the figure was > 4 mM (inactive); with `Cc1nc2nc(Cc3ccccc3)nn2c(C)c1Cl`, > 4 mM (inactive).
Turning to `Cc1cc(C)c(NC(=O)CN2CCC(O)CC2)c(C)c1`, the Kd was > 4 mM (inactive).
With `CC(=O)Nc1ccc(N(C)C(C)=O)cc1` the figure was > 4 mM (inactive).
Under `Nc1cccc(-c2cnco2)c1` stands > 4 mM (inactive); under `COc1cc(O)c(C)c(O)c1`, > 4 mM (inactive).
Under `CCCNC(=O)CSc1ncccc1C(=O)O` stands > 4 mM (inactive).
Consider `CC(=O)NC(=S)Nc1ccccc1C(N)=O`, for which the Kd is > 4 mM (inactive).
Regarding `c1cncc(Nc2nc(-c3ccncc3)cs2)c1`, the Kd is > 4 mM (inactive).
For `Cc1nc(SCC(=O)c2c[nH]c3ccccc23)n[nH]1`, the Kd was > 4 mM (inactive).
With `COc1cccc(/C=N/N=C2/NC(=O)CS2)c1`, the Kd was > 4 mM (inactive).
For the molecule `O=c1c2ccccc2oc2ccc(O)cc12`, the Kd is > 4 mM (inactive).
Under `O=C(O)Cn1c(C(F)(F)F)nc2ccccc21` stands > 4 mM (inactive); under `Cc1cc(SCC(=O)c2ccccc2)nc(=O)[nH]1`, > 4 mM (inactive); under `Cc1noc(C)c1C(=O)N1CCc2ccccc2C1`, > 4 mM (inactive).
Under `COc1cc(OC)c(-c2nc3cnccc3n2C)cc1OC` stands > 4 mM (inactive).
Under `O=C(O)CCn1cncn1` stands > 4 mM (inactive); under `COc1ccc(S(=O)(=O)N2CCOCC2)cc1C(C)C`, > 4 mM (inactive); under `Cn1c(SCCC(=O)O)nnc1-c1cccnc1`, > 4 mM (inactive).
On to `CC(C)c1c(O)ccc2c1CCC1C(C)(C)CCC[C@]21C` (stereo partly specified), for which the Kd is > 4 mM (inactive).
With `O=c1c(O)c(-c2ccc(O)cc2O)oc2cc(O)cc(O)c12` the figure was > 4 mM (inactive); with `NCc1csc(-c2ccccc2)n1`, > 4 mM (inactive); with `CC1(C)Oc2ccc(N)cc2O1`, > 4 mM (inactive).
Turning to `CC(=O)O[C@@H]1C=C[C@@]2(C)C(C[C@@H](OC(C)=O)[C@@]3(C)C4=CC(=O)O[C@@H](c5ccoc5)[C@]4(C)CCC23)C1(C)C` (stereo partly specified), the Kd was > 4 mM (inactive).
With `Cc1ccc2[nH]cc(CCN)c2c1` the figure was > 4 mM (inactive).
Under `Cc1n[nH]c(C)c1-c1ccccc1C(=O)O` stands > 4 mM (inactive).
Under `CCOc1cc(S(=O)(=O)N2CCOCC2)ccc1F` stands > 4 mM (inactive).
Regarding `O=C(Nc1cccnc1)c1cccs1`, the Kd is > 4 mM (inactive).
Under `Cc1cc(=O)n(CC(C)C)c(O)c1C#N` stands > 4 mM (inactive).
With `CCOc1ccc(C(=O)c2ccncc2)cc1` the figure was > 4 mM (inactive); with `Cc1occc1C(=O)Nc1ccc2c(c1)CCC2`, > 4 mM (inactive).

Broadly, the Kd is the equilibrium constant for the complex coming apart.
